Publication PMC12009420, “Dynamically chiral phosphonic acid-type metallo-β-lactamase inhibitors” (Communications Chemistry, 2025)
Like-named read-outs stand apart in the source and are kept apart here.

Columns and labels:
[1] = biological target: T1, NDM-1 (Klebsiella pneumoniae, UniProt C7C422); conditions: read-out: IC50 against NDM-1; cited from earlier work
[2] = read-out: Kd, affinity to zinc ions; cited from earlier work
[3] = biological target: T2, VIM-2 (Escherichia coli, UniProt Q5U7L7); conditions: cited from earlier work
[4] = Long term stability in buffer with 2.5% DMSO (LC-MS); assay type: physicochemical; conditions: 20 mM KPO4, 0.1 mM ZnCl2, pH 7.0 + 2.5% DMSO; LC-MS 254 nm
From the text: Reagents, reactants, solvents and drying agents for synthesis, work-up and purification were purchased from commercial vendors (Sigma-Aldrich, VWR, Merck, Fluorochem, Thermo Fisher Scientific, Solveco), and if not stated otherwise they were used without further purification. Reactions and long term stability of the final compounds in buffer were monitored using LC-MS (Agilent 1260 Infinity II) equipped with an ESI-Q detector (Infinitylab LC-MSD) using Agilent InfinityLab Poroshell 120 C18 columns (2.7 μm, ϕ 2.1 mm L 50 mm or 2.7 μm, ϕ 4.6 mm L 50 mm). The intermediates were purified using VWR silica gel 60 (40–63 μm) with a Biotage Isolera One flash column chromatography instrument. The final products were purified with preparative RP-HPLC (VWR LaPrep P110) with single wavelength detection (254 nm), using a Kinetex C8 column (5 μm, 100 Å, ϕ 21.2 mm L 250 mm) and gradients of CH3CN/H2O + 0.1% formic acid as the mobile phase at a 10 mL/min flow rate. Analytical HPLC data were acquired on a VWR LaChrome ELITE system using an ACE3 C8 (3 μm, 300 Å, ϕ 3.0 mm L 100 mm) or a Kinetex C18 columns (5 μm, 100 Å, ϕ 3.0 mm L 150 mm). NMR spectra were recorded on a Varian Agilent MR400-DD2 400 MHz spectrometer equipped with a OneNMR probe, Bruker Avance Neo 500 MHz spectrometer equipped with a cryogenic TXO probe, or a Bruker Avance Neo 600 MHz spectrometer equipped with a TCI cryogenic probe. The chemical shifts are reported using the residual solvent signal as an indirect reference to TMS.
4. Long term stability of the final compounds in buffer with 2.5% DMSO
The long term stability of the final compounds in buffer (20 mM KPO4, 0.1 mM ZnCl2, pH 7.0 + 2.5% DMSO) were monitored using LC-MS (Agilent 1260 Infinity II) equipped with an ESI-Q detector (Infinitylab LC-MSD) using Agilent InfinityLab Poroshell 120 C18 column (2.7 μm, ϕ 4.6 mm L 50 mm) at 254 nm with a 7 min long gradient method (5% to 95% CH3CN) of CH3CN/H2O + 0.1% formic acid as the mobile phase at a 1.0 mL/min flow rate. The samples were measured right after dissolving them in buffer, and after 1 month of keeping the same samples dissolved in the same buffer. The main peaks (> 95%) and impurities with > 1% are […]
Figure S14. Compound 5a right after dissolving it in buffer.
Figure S15. Compound 5a kept in buffer for 1 month. […]

[5] = biological target: T1, NDM-1; assay: Enzymatic metallo-β-lactamase assay on purified NDM-1; assay type: biochemical; conditions: for Ki: approximated from Dixon plots (1/v vs [I]) at one constant substrate concentration, ± SE, read-out: Estimated inhibition constant Ki NDM-1; for logIC50 NDM-1: log of IC50, ± SEM of logIC50; for IC50: purified enzyme 5 nM, imipenem 30 μM, pH 7.2, 25 °C
Method: (§1) A few inhibitors were tested up to 1600 μM to ensure nearly complete inhibition. Solutions of 100 μL consisting of buffer, purified enzyme (1 nM for GIM-1 and VIM-2, 5 nM for NDM-1), inhibitor and reporter substrate nitrocefin (15 μM for VIM-2, 2 μM for GIM-1) or imipenem (30 μM for NDM-1) were incubated in triplicates on a 96 well plate for 5 min at 25 °C. Buffer solution consisted of 50 mM HEPES pH 7.2, 50 μM ZnSO4 and 0.4 mg/ml bovine serum albumine. Inhibitors were dissolved in DMSO but diluted to assure <2% DMSO in measured assay. Absorbance was measured at 482 nm (nitrocefin) and 300 nm (imipenem) on a SpectraMax M4 spectrophotometer. The initial velocity at each inhibitor concentration was analyzed in GraphPad Prism v9.3.1 and fitted to dose-response curves by non-linear regression (log [inhibitor] vs response) used to calculate IC50 (Supplementary Tables S2–5).

[6] = biological target: T2, VIM-2; assay: Enzymatic metallo-β-lactamase assay on purified VIM-2; assay type: biochemical; conditions: for Ki: approximated from Dixon plots (1/v vs [I]) at one constant substrate concentration, ± SE, read-out: Estimated inhibition constant Ki VIM-2; for logIC50 VIM-2: log of IC50, ± SEM of logIC50; for IC50: purified enzyme 1 nM, nitrocefin 15 μM, pH 7.2, 25 °C
Method: as §1

[7] = MTT cytotoxicity assay; assay type: cell-based; conditions: human, HepG2 cells
Method: Cytotoxic activity of the compounds was measured through the MTT colorimetric assay as previously described[60] using the Colorimetric (MTT) Kit for Cell Survival and Proliferation (Merck/Millipore; Darmstadt, Germany). HepG2 cells (human hepatocellular carcinoma cell line) were kept in penicillin/streptomycin-free medium overnight and then they were treated with the compounds for 24 h. Subsequently, the MTT reagent was added to the cells and after 3 h of incubation, MTT-derived formazan crystals were solubilized in acidified isopropanol (0.1 mL isopropanol with 0.04 N HCl). Absorbance was measured with multiscan spectrophotometer (Thermo Fisher Scientific) at 530 nm test and 630 nm reference wavelengths. Cell viability was expressed as the percentage of viable, untreated cells. CC50 values were determined with GraphPad Prism software (v9.3.1) and adjusted to dose-response curves by non-linear regression (Supplementary Table S7).
8. Cytotoxocity against HepG2 cells
Table S7. CC50 values and viability curves of metallo-β-lactamase inhibitors tested on HepG2 […]
cells. […]
range. Data are shown as % via bility values ± SEM (n=4). Calculations were done using […]
Inhibitors CC50 (μM) HepG2 […]

[8] = biological target: T3, GIM-1 (Pseudomonas aeruginosa, UniProt Q704V1); assay: Enzymatic metallo-β-lactamase assay on purified GIM-1; assay type: biochemical; conditions: for logIC50 GIM-1: log of IC50, ± SEM of logIC50; for IC50: purified enzyme 1 nM, nitrocefin 2 μM, pH 7.2, 25 °C
Method: as §1

[9] = biological target: T4, 15N-labeled NDM-1 (Klebsiella pneumoniae, UniProt C7C422); assay: 1H,15N-HSQC titration of NDM-1; assay type: binding; conditions: 10 equivalents of compound, 600 MHz, pH 7.0, 25 °C
T4 construct: made in house
Method: The ^1H, ^15N-HSQC spectra for the titration experiments were recorded on a Bruker Avance Neo 600 MHz spectrometer equipped with a 5 mm TCI cryogenic probe at 25 °C. The U-[^15N]-labeled VIM-2 was prepared in a buffer of 20 mM KPO4, 0.1 mM ZnCl2, at pH 7.0, containing 85% H2O/15% D2O at a concentration of 0.25 mM. The U-[^15N]-labeled NDM-1 was used in a buffer of 20 mM HEPES, 0.1 mM ZnCl2, at pH 7.0, containing 85% H2O/15% D2O at a concentration of 0.25 mM. The ligands 5d, 5g, 5i, 5j (for VIM-2 titrations) and 5 f (for NDM-1 titration) were dissolved in the same buffer as the corresponding enzymes. Spectra were recorded using solvent suppression, 1024 points in f1, 16 transients, 512 increments in f2 and a relaxation delay of 0.2 s. The titrations were carried out with 0, 0.25, 0.50, 1.00, 1.50, 2.25, 3.00, 4.00, 5.00, 7.00, 10.0 equivalents of the inhibitors. […]
(§2) Chemical shift perturbation values (CSP, ΔδNH) were calculated as the weighted average of
(§3) the chemical shift changes in f1 (ΔδN) and f2 (ΔδH) dimensions using the following equation 8:
∆δ = √∆δ 2 + ( N ); R = 6.5 […]

[10] = biological target: T5, 15N-labelled VIM-2 (Escherichia coli, UniProt Q5U7L7); assay: 1H,15N-HSQC titration of VIM-2; assay type: binding; conditions: 10 equivalents of compound, 600 MHz, pH 7.0, 25 °C
T5 construct: made in house
Method: The ^1H, ^15N-HSQC spectra for the titration experiments were recorded on a Bruker Avance Neo 600 MHz spectrometer equipped with a 5 mm TCI cryogenic probe at 25 °C. The U-[^15N]-labeled VIM-2 was prepared in a buffer of 20 mM KPO4, 0.1 mM ZnCl2, at pH 7.0, containing 85% H2O/15% D2O at a concentration of 0.25 mM. The U-[^15N]-labeled NDM-1 was used in a buffer of 20 mM HEPES, 0.1 mM ZnCl2, at pH 7.0, containing 85% H2O/15% D2O at a concentration of 0.25 mM. The ligands 5d, 5g, 5i, 5j (for VIM-2 titrations) and 5 f (for NDM-1 titration) were dissolved in the same buffer as the corresponding enzymes. Spectra were recorded using solvent suppression, 1024 points in f1, 16 transients, 512 increments in f2 and a relaxation delay of 0.2 s. The titrations were carried out with 0, 0.25, 0.50, 1.00, 1.50, 2.25, 3.00, 4.00, 5.00, 7.00, 10.0 equivalents of the inhibitors.
Figure S47. Superimposition of the 1H,15N-HSQC spectrum (600 MHz, pH 7.0, 25 °C) of
VIM-2 in the absence (blue) and in the presence (green) of 10 molar equivalent of compound
5j. Buffer: 20 mM KPO4, 0.1 mM ZnCl2, with 15% D2O.
as §2, §3
∆δ = √∆δ 2 + ( N ); R = 6.5
Figure S48. Linear regression of the chemical shift perturbations of compound 5g (IC50 =
12 μM) as a function of the chemical shift perturbations of compounds 5c (yellow circle), 5d
(grey square), 5i (green triangle) and 5j (blue circle) for VIM-2. The data of the studied […]

[11] = biological target: T3, GIM-1; assay: Enzymatic metallo-β-lactamase assay on purified GIM-1; assay type: biochemical; conditions: approximated from Dixon plots (1/v vs [I]) at one constant substrate concentration; ± SE; read-out: Estimated inhibition constant Ki GIM-1
[12] = HepG2, MTT, read-out: CC50 (in viability curve)
[13] = MTT, 0.0025 mM - 1mM concentration range, read-out: Cytotoxicity CC50 HepG2

T1 sequence (C7C422 29-270, looked up, species assumed): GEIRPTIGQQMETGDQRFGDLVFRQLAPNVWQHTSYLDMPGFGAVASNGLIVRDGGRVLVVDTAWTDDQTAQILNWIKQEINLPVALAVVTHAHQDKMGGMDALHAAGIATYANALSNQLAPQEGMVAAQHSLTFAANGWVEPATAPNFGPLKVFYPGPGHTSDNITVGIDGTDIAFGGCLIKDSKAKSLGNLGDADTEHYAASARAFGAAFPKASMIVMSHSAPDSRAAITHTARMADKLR
T3 sequence (Q704V1 entry or part of it): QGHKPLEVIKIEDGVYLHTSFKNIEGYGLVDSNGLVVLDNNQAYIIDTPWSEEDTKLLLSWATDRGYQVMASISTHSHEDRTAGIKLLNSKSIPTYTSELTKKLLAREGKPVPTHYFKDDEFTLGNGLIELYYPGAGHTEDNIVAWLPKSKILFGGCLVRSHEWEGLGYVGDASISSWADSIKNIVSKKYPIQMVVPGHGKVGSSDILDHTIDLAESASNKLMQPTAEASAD
T4 sequence (C7C422 29-270, looked up): as the sequence (C7C422 29-270, looked up, species assumed) above

Mean chemical shift perturbation, NDM-1 [9] | Structure (SMILES) | IC50 [1] | Kd [2] | IC50 ([3]; read-out: IC50 against VIM-2) | main peak Area% kept in buffer for 1 month [4] | main peak Area% right after dissolving in buffer [4] | Ki [5] | logIC50 NDM-1 [5] | IC50 [5] | Ki [6] | logIC50 VIM-2 [6] | IC50 [6] | CC50 at 24 h [7, 12] | CC50 at 24 h [7, 13] | logIC50 GIM-1 [8] | IC50 [8] | Mean chemical shift perturbation, VIM-2 [10] | Ki [11] | IC50 ([3]; Table S8, ref 35 (SI), read-out: IC50 VIM-2) | IC50 ([3]; read-out: IC50 for VIM-2)
– | O=C(O)CN(CC(=O)O)CP(=O)(O)O [N-(phosphonomethyl)-iminodiacetic acid] | 0.91 µM | 0.056 µM | 0.68 µM | – | – | – | – | – | – | – | – | – | – | – | – | – | – | – | –
0.05 ppm | O=C(NC(c1ccccc1O)P(=O)(O)O)c1csc2c1CCCC2 (centres unmarked) [5f] | – | – | – | 95.90% | 95.67% | 128 ± 58 µM | 1.48 ± 0.03 log10(IC50/μM) | 30 µM | 40 ± 2 µM | 1.68 ± 0.05 μM | 48 µM | 4800 µM | 4800 µM | 1.71 ± 0.10 μM | 52 µM | – | – | – | –
– | O=C(Cc1cccs1)NC(c1ccccc1O)P(=O)(O)O (centres unmarked) [5i] | – | – | – | 97.58% | 96.45% | 1070 ± 360 µM | 1.94 ± 0.08 log10(IC50/μM) | 87 µM | 76 ± 8 µM | 1.58 ± 0.08 μM | 38 µM | 1500 µM | 1490 µM | 2.28 ± 0.52 μM | 189 µM | 0.04 ppm | 348 ± 28 µM | – | –
– | NCCN[C@H]1CC[C@H](CC(=O)N[C@H]2Cc3cccc(C(=O)O)c3OB2O)CC1 [taniborbactam] | – | – | – | – | – | – | – | – | – | – | – | – | – | – | – | – | – | 0.002 µM | 0.04 µM
